Paper PMC5318439, “The Novel Toll-Like Receptor 2 Agonist SUP3 Enhances Antigen Presentation and T Cell Activation by Dendritic Cells” (Frontiers in Immunology, 2017)
Where a SMILES comes first, the peptide text is derived from it. The star is where a group is joined. X1 = CCCCCCCCCCCCCCNC(=O)OC[C@H](C*)OC(=O)NCCCCCCCCCCCCCC; Palmitoyl = CCCCCCCCCCCCCCCC(=O)*

Key:
[1] = test system: splenic CD11b^+ cDCs; experiment: CD86 expression on splenic CD11b+ cDCs after i.v. administration; type: in vivo, mice; conditions: 2 nmol per mouse i.v., 1 h
Description: Figure 5 SUP3 enhanced antigen presentation ability of CD11b^+ conventional dendritic cells (cDCs) and production of antibodies against thymus-dependent (TD) antigens. (A) Mice were immunized by TD antigen nitrophenyl-keyhole limpet hemocyanin (NP-KLH) (5 µg per mouse) with or without SUP3 (2 nmol per mouse), Pam3 (2 nmol per mouse), or alum (3 µg per mouse) as adjuvants, respectively. Serum IgM (nitrophenyl 30mer-captured, NP30-captured), total IgG (NP30-captured), and high affinity IgG (nitrophenyl 8mer-captured, NP8-captured) specific to NP at indicated time points were examined by ELISA. […] Three days after immunization, division of OT-II CD4^+ T cells from inguinal lymph nodes were analyzed by flow cytometry (B). Absolute numbers of proliferated OT-II CD4^+ T cells were calculated in (C). […] Cells were then thoroughly washed and cocultured with CFSE-stained OT-II CD4^+ T cells for 4 days and analyzed by flow cytometry. (D) The division of OT-II cells was measured by reduced level of CFSE-labeling. (E) Absolute numbers of proliferated T cells from (D) were calculated. (F) SUP3 (2 nmol per mouse), Pam3 (2 nmol per mouse), or PBS were i.v. injected into mice for 1 h, and splenic CD11b^+ cDCs were enriched and analyzed for CD86 expression by flow cytometry. […] The cytokines from supernatant were determined by ELISA (*p < 0.05, **p < 0.01). […]

[2] = test system: NF-κB and MAPK pathways; experiment: Immunoblot of NF-κB and MAPK signaling in CD8+ cDCs; type: cell-based, mice; conditions: 200 nM, 0–120 min, western blot
Description: Immunoblot assay was performed as described elsewhere ([40], [41]). Briefly, whole-cell lysates were prepared by direct lysis in SDS loading buffer. Lysates were separated by 10% SDSPAGE and transferred to a polyvinylidene fluoride membrane (Millipore IPVH00010) for probing with antibody. Antibodies against phosphorylated NF-κB p65 (p-p65) (Ser 536) (Clone 93H1), p-SAPK/JNK (Thr183/Tyr185) (Clone 81E11), SAPK/JNK (Clone 56G8), p-p38 (Thr180/Tyr182) (Clone 3D7), and p38 (Clone D13E1) were purchased from Cell Signaling Technology. Antibodies against IκBα ([…]), p-ERK (Clone E-4), and ERK (Clone K-23) were purchased from Santa Cruz Biotech. The chemiluminescence signals were captured by Amersham Image 600 system (GE Healthcare).
Figure 4 SUP3 stimulated maturation of CD8^+ conventional dendritic cells (cDCs). (A) Purified CD8^+ cDCs were treated with SUP3 (200 nM) or Pam3 (200 nM) in the presence of granulocyte-macrophage colony-stimulating factor (GM-CSF) (20 ng/mL) for 24 h. The surface expression of costimulatory and major histocompatibility complex (MHC) molecules were then analyzed by flow cytometry. Representative data from three independent experiments were shown. […] Splenic CD8^+ cDCs were enriched, and surface expression of CD40 and CD86 was analyzed by flow cytometry. […] Supernatants were harvested 24 and 48 h post-stimulation, and cytokines were measured by ELISA. […]

Row | Compound | CD86 on splenic CD11b+ cDC in vivo [1] | NF-κB and MAPK signaling (p-p65, IκBα, p-ERK, p-JNK, p-p38) in CD8+ cDCs [2]
1 | CCCCCCCCCCCCCCCC(=O)N[C@@H](CSC[C@@H](COC(=O)NCCCCCCCCCCCCCC)OC(=O)NCCCCCCCCCCCCCC)C(=O)NCC(=O)N[C@@H](CCCCN)C(=O)N[C@@H](CCCCN)C(=O)N[C@@H](CCCCN)C(=O)O [SUP3, (2S,5S,8S,14R,18R)-2,5,8-tris(4-aminobutyl)-4,7,10,13,21-pentaoxo-14-palmitamido-18-((tetradecylcarbamoyl)oxy)-20-oxa-16-thia-3,6,9,12,22-pentaazahexatriacontan-1-oic acid] (Palmitoyl-C(X1)GKKK-OH) | CD86 upregulation | induced phosphorylation of p65 and degradation of IκBα and enhanced phosphorylation of ERK, JNK, and p38
2 | Pam3CSK4 [reference compound] | CD86 upregulation | –
